Measured values from BindingDB's records for doi:10.1016/s0960-894x(02)00064-1 (University of Lyon 1, 2002).
pKi: −log10 of the molar value.

Assays:
[1] = biological target: Toxoplasma gondii purine nucleoside phosphorylase (Toxoplasma gondii); assay: Compound was evaluated for its binding affinity against Toxoplasma gondii purine nucleoside phosphorylase of virulent strain RH (value indicates competitive inhibition)
[2] = biological target: Toxoplasma gondii purine nucleoside phosphorylase (Toxoplasma gondii); assay: as above; remark: listed apart in the source
[3] = biological target: Toxoplasma gondii purine nucleoside phosphorylase (Toxoplasma gondii); assay: Compound was evaluated for its binding affinity against Toxoplasma gondii purine nucleoside phosphorylase from cystic strain ME 49 (value indicates competitive inhibition)
[4] = biological target: Toxoplasma gondii purine nucleoside phosphorylase (Toxoplasma gondii); assay: Compound was evaluated for its binding affinity against Toxoplasma gondii purine nucleoside phosphorylase of virulent strain RH (value indicates Non competitive inhibition)
[5] = biological target: Toxoplasma gondii purine nucleoside phosphorylase (Toxoplasma gondii); assay: Compound was evaluated for its binding affinity against Toxoplasma gondii purine nucleoside phosphorylase from cystic strain ME 49 (value indicates Non competitive inhibition)

SMILES: O=c1[nH]cnc2c1cnn2[C@@H]1O[C@H](CO)[C@@H](O)[C@H]1O
- pKi [1]: 2.74
- pKi [2]: 2.70

SMILES: O=C1C=CC(=O)c2c1nc(Cc1ccccc1)n2Cc1ccccc1 [1,2-Dibenzyl-1H-benzoimidazole-4,7-dione]
- pKi [1]: 3.17
- pKi [3]: 3.46

SMILES: O=C1C=CC(=O)c2c1ncn2Cc1ccccc1F [1-(2-Fluoro-benzyl)-1H-benzoimidazole-4,7-dione]
- pKi [4]: 2.83
- pKi [5]: 2.82

SMILES: O=C1C=CC(=O)c2c1ncn2Cc1cccc(F)c1 [1-(3-Fluoro-benzyl)-1H-benzoimidazole-4,7-dione]
- pKi [4]: 3.00
- pKi [5]: 3.28

SMILES: O=C1C=CC(=O)c2c1ncn2Cc1ccc(F)cc1 [1-(4-Fluoro-benzyl)-1H-benzoimidazole-4,7-dione]
- pKi [4]: 3.11
- pKi [5]: 3.00

SMILES: Cc1nc2c(n1Cc1ccccc1)C(=O)C=CC2=O [1-Benzyl-2-methyl-1H-benzoimidazole-4,7-dione]
- pKi [2]: 2.98
- pKi [3]: 3.52

SMILES: CCCCn1cnc2c1C(=O)C=CC2=O [1-Butyl-1H-benzoimidazole-4,7-dione]
- pKi [4]: 2.53
- pKi [5]: 3.25

SMILES: Cn1cnc2c1C(=O)C=CC2=O [1-Methyl-1H-benzoimidazole-4,7-dione]
- pKi [4]: 2.66

SMILES: O=C1C=CC(=O)c2[nH]cnc21 [1H-Benzoimidazole-4,7-dione]
- pKi [4]: 2.78
- pKi [5]: 3.26
